Reference: PubChem BioAssay AID1845204 (Molecular Pharmacology Branch, DTP, NCI, 2023)

System: HSSY-II tumor spheroid viability
Assay: Anticancer human tumor HSSY-II cell line growth inhibition;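 also: spheroids exposed to compounds for seven days before reading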;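 as to viability, T/C: percent of DMSO vehicle control viability so 100% = untreated level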
Settings: spheroids with HUVEC and MSC; for IC50: curve of first compound; for viability, T/C: stronger effect = lower value; active = viability on the fitted dose curve at most 10% of control; inactive = the rest
Description: Multicellular complex tumor spheroid response to DNA repair inhibitors in combination with DNA-damaging drugs
This study explores the anticancer activities of DNA-damaging drugs and inhibitors of DNA damage repair, both as single agents and in combinations. Complex tumor spheroids comprised of malignant cells, endothelial cells and mesenchymal stem cells served as an in vitro model for human solid tumors. This model system incorporates physiologically relevant features and patient-derived or established malignant cell lines with clinically relevant genetic alterations from many tumor types. Twenty-six patient-derived or established malignant cell lines were evaluated representing sarcoma, melanoma, small cell lung cancer (SCLC), non-small cell lung cancer (NSCLC), as well as bladder, ovarian and pancreatic cancers. The concentration ranges selected for each drug and investigational agent were based upon clinically achievable concentrations if the clinical Cmax of the agent was known.
Compounds. The drugs and compounds olaparib (NSC753686), talazoparib (NSC767125), berzosertib (NSC777718), elimusertib (NSC800525), nedisertib (NSC802822), VX-984 (NSC792969), AZD-1390 (NSC803789), temozolomide (NSC362856), topotecan (NSC609699), trabectedin (NSC813783), staurosporine (NSC755774), and gemcitabine (NSC613327) were obtained from the National Cancer Institute (NCI) Developmental Therapeutics Program Chemical Repository. The FDA-approved anticancer drug set is available from the Developmental Therapeutics Program at https://dtp.cancer.gov/organization/dscb/obtaining/available_plates.htm. […] The stock solutions were prepared in dimethyl sulfoxide (DMSO, Sigma-Aldrich, St. Louis, MO, cat. D2650) at 400-fold the tested concentration and stored at -70 degrees C. Prior to their use, the stock solutions were diluted in fresh medium and the final DMSO concentration in the assay was 0.25% (v/v). All drugs and investigational agents were tested over a range starting from a high concentration at or near the clinical Cmax and decreasing in half-log increments. If the clinical Cmax for an agent had not been determined, the highest concentration tested was 10 microM.
Cell Lines. The patient-derived cancer cell (PDC) lines: 156681-154-R-J1-PDC, 283228-195-R-J1-PDC, 287954-098-R-J1-PDC, 292921-168-R-J2-PDC, 349418-098-R-PDC, 425362-245-T-J1-PDC, 556581-035-R-J1-PDC, and BL0293-F563-PDC were received from the NCI Patient-Derived Models Repository (PDMR, https://pdmr.cancer.gov). The established cell lines HS-SY-2 (RRID:CVCL_8719), MPNST, and SYO-1 (RRID:CVCL_7146) were obtained from the Sloan Kettering Institute. The alveolar soft parts sarcoma cell line ASPS-1 (RRID:CVCL_S738) was established at the NCI and grown from internal seed stocks. The following established cell lines were purchased from the American Type Culture Collection (ATCC, Manassas, VA): G-401 (ATCC, cat. CRL-1441, RRID:CVCL_0270), SW982 (ATCC, cat. HTB-93, RRID:CVCL_1734), VA-ES-BJ (ATCC, cat. CRL-2138, RRID:CVCL_1785), NCI-H719 (ATCC, cat. CRL-5837, RRID:CVCL_1582), NCI-H196 (ATCC, cat. CRL-5823, RRID:CVCL_1509), NCI-H841 (ATCC, cat. CRL-5845, RRID:CVCL_1595), NCI-H1618 (ATCC, cat. CRL-5879, RRID:CVCL_1480), NCI-H1876 (ATCC, cat. CRL-5902, RRID:CVCL_1503), DMS 114 (ATCC, cat. CRL-2066; RRID:CVCL_1174), NCI-H211 (ATCC, cat. CRL-5824; RRID:CVCL_1529), and SW 1271 (ATCC, cat. CRL-2177, RRID:CVCL_1716). The small cell lung cancer cell line COR-L88 was purchased from Sigma-Aldrich (cat. 92031917-1VL, RRID:CVCL_1141). The non-small cell lung cancer cell lines NCI-H226 (RRID:CVCL_1544) and NCI-H322M (RRID:CVCL_1557) were established at the NCI and grown from internal seed stocks. Pooled donor human umbilical vein endothelial cells (HUVEC, Lonza, cat. CC-2519) and human mesenchymal stem cells (hMSC, Lonza, cat. PT-2501) were purchased from Lonza (Walkersville, MD).
Cell Culture. All cells were maintained in an incubator at 37 degrees C and 5% CO2 with 95% humidity. […]

[1] = second compound 0.003 µM, first compound 0.00949 µM
[2] = second compound 0.003 µM, first compound 0.03 µM
[3] = second compound 0.003 µM, first compound 0.0949 µM
[4] = second compound 0.003 µM, first compound 0.3 µM
[5] = second compound 0.003 µM, first compound 0.949 µM
[6] = second compound 0.003 µM, first compound 3 µM

CNCc1ccc(-c2cc(-c3nc(-c4ccc(S(=O)(=O)C(C)C)cc4)cnc3N)on2)cc1 + CC[C@@]1(O)C(=O)OCc2c1cc1n(c2=O)Cc2cc3c(CN(C)C)c(O)ccc3nc2-1
active: viability, T/C [3] 3.68% | viability, T/C [4] 4.09% | viability, T/C [5] 2.62% | viability, T/C [6] 0.44% | viability, T/C (second compound 0.00949 µM, first compound 0.03 µM) 9.13% | viability, T/C (second compound 0.00949 µM, first compound 0.0949 µM) 3.26% | viability, T/C (second compound 0.00949 µM, first compound 0.3 µM) 4.02% | viability, T/C (second compound 0.00949 µM, first compound 0.949 µM) 2.08% | viability, T/C (second compound 0.00949 µM, first compound 3 µM) 0.35% | viability, T/C (second compound 0.03 µM, first compound 0.00949 µM) 6.55% | viability, T/C (second compound 0.03 µM, first compound 0.03 µM) 4.21% | viability, T/C (second compound 0.03 µM, first compound 0.0949 µM) 3.3% | viability, T/C (second compound 0.03 µM, first compound 0.3 µM) 3.14% | viability, T/C (second compound 0.03 µM, first compound 0.949 µM) 2.37% | viability, T/C (second compound 0.03 µM, first compound 3 µM) 0.13% | viability, T/C (second compound 0.0949 µM, first compound 0.00949 µM) 4.97% | viability, T/C (second compound 0.0949 µM, first compound 0.03 µM) 3.98% | viability, T/C (second compound 0.0949 µM, first compound 0.0949 µM) 4.07% | viability, T/C (second compound 0.0949 µM, first compound 0.3 µM) 3.55% | viability, T/C (second compound 0.0949 µM, first compound 0.949 µM) 2.72% | viability, T/C (second compound 0.0949 µM, first compound 3 µM) 0.42% | viability, T/C (second compound 0.3 µM, first compound 0.00949 µM) 4.42% | viability, T/C (second compound 0.3 µM, first compound 0.03 µM) 3.95% | viability, T/C (second compound 0.3 µM, first compound 0.0949 µM) 3.59% | viability, T/C (second compound 0.3 µM, first compound 0.3 µM) 3.99% | viability, T/C (second compound 0.3 µM, first compound 0.949 µM) 3.16% | viability, T/C (second compound 0.3 µM, first compound 3 µM) 0.24%
18.6 nM: IC50 (second compound 0.003 µM)
inactive: viability, T/C [1] 77.6% | viability, T/C [2] 30.6% | viability, T/C (second compound 0.00949 µM, first compound 0.00949 µM) 32.7%
< 9.49 nM: IC50 (second compound 0.00949 µM) | IC50 (second compound 0.03 µM) | IC50 (second compound 0.0949 µM) | IC50 (second compound 0.3 µM)

CNCc1ccc(-c2cc(-c3nc(-c4ccc(S(=O)(=O)C(C)C)cc4)cnc3N)on2)cc1 + COc1cc2c(cc1O)CCNC21CSC2c3c(OC(C)=O)c(C)c4c(c3C(COC1=O)N1C(O)C3Cc5cc(C)c(OC)c(O)c5C(C21)N3C)OCO4
inactive: viability, T/C (second compound 30 pM, first compound 0.00949 µM) 93.8% | viability, T/C (second compound 30 pM, first compound 0.03 µM) 51.9% | viability, T/C (second compound 94.9 pM, first compound 0.00949 µM) 57% | viability, T/C (second compound 94.9 pM, first compound 0.03 µM) 15.9%
< 9.49 nM: IC50 (second compound 0.0003 µM) | IC50 (second compound 0.000949 µM) | IC50 (second compound 0.003 µM)
11.5 nM: IC50 (second compound 94.9 pM)
active: viability, T/C (second compound 30 pM, first compound 0.0949 µM) 7.62% | viability, T/C (second compound 30 pM, first compound 0.3 µM) 4.24% | viability, T/C (second compound 30 pM, first compound 0.949 µM) 1.27% | viability, T/C (second compound 30 pM, first compound 3 µM) 0.11% | viability, T/C (second compound 94.9 pM, first compound 0.0949 µM) 4.64% | viability, T/C (second compound 94.9 pM, first compound 0.3 µM) 4.08% | viability, T/C (second compound 94.9 pM, first compound 0.949 µM) 1.02% | viability, T/C (second compound 94.9 pM, first compound 3 µM) 0.1% | viability, T/C (second compound 0.0003 µM, first compound 0.00949 µM) 10.1% | viability, T/C (second compound 0.0003 µM, first compound 0.03 µM) 5.43% | viability, T/C (second compound 0.0003 µM, first compound 0.0949 µM) 3.66% | viability, T/C (second compound 0.0003 µM, first compound 0.3 µM) 3.41% | viability, T/C (second compound 0.0003 µM, first compound 0.949 µM) 0.72% | viability, T/C (second compound 0.0003 µM, first compound 3 µM) 0.12% | viability, T/C (second compound 0.000949 µM, first compound 0.00949 µM) 2.93% | viability, T/C (second compound 0.000949 µM, first compound 0.03 µM) 2.47% | viability, T/C (second compound 0.000949 µM, first compound 0.0949 µM) 2.03% | viability, T/C (second compound 0.000949 µM, first compound 0.3 µM) 1.1% | viability, T/C (second compound 0.000949 µM, first compound 0.949 µM) 0.09% | viability, T/C (second compound 0.000949 µM, first compound 3 µM) 0.15% | viability, T/C [1] 0.22% | viability, T/C [2] 0.27% | viability, T/C [3] 0.21% | viability, T/C [4] 0.2% | viability, T/C [5] 0.18% | viability, T/C [6] 0.25%
31.5 nM: IC50 (second compound 30 pM)
